Assay results: ChEMBL document CHEMBL1129745, “Synthesis and antibacterial activity of new tropone-substituted phenyloxazolidinone antibacterial agents 1. Identification of leads and importance of the tropone substitution pattern” (1996)
In brackets after ≈: the same amount, converted by molar mass.

Legend:
Format in all cases: functional
[1] = test system: Staphylococcus epidermidis; experiment: Compound was tested in vitro for antibacterial activity against methicillin-resistant Staphylococcus epidermidis UC 12084
[2] = test system: Mycobacterium tuberculosis; experiment: Compound was tested in vitro for antibacterial activity against Mycobacterium tuberculosis H37 Rv.
[3] = test system: Escherichia coli; experiment: Compound was tested in vitro for antibacterial activity against Escherichia coli extracts, using cell free prokaryotic transcription coupled translation (T/T) assay.; design: concentration or dose not given beside the values; conditions: dose or concentration not given here
[4] = test system: Streptococcus pneumoniae; experiment: Compound was tested in vitro for antibacterial activity against Streptococcus pneumoniae UC 9912.
[5] = test system: Staphylococcus aureus; experiment: Compound was tested in vitro for antibacterial activity against methicillin-resistant Staphylococcus aureus UC 6685.
[6] = test system: Enterococcus faecalis; experiment: Compound was tested in vitro for antibacterial activity against Enterococcus faecalis UC 9217.
[7] = test system: Staphylococcus aureus; experiment: Compound was tested in vitro for antibacterial activity against methicillin-susceptible Staphylococcus aureus UC 9213.
[8] = test system: Mus musculus; experiment: Amount of drug required (mg/kg body weight/dose) to cure 50% of infected mice subjected to a lethal systemic infection with Staphylococcus aureus UC 9213

Row | SMILES | MIC [1] [µg/mL] | MIC [2] [µg/mL] | inhibition [3] [%] | MIC [4] [µg/mL] | MIC [5] [µg/mL] | MIC [6] [µg/mL] | MIC [7] [µg/mL] | ED50 [8] [mg/kg]
1 | COc1cccc(-c2ccc(N3CC(CNC(C)=O)OC3=O)cc2)cc1=O (stereo not drawn) | 0.5 (≈ 1.36 µM) | ≤ 1 | 90 | 0.5 (≈ 1.36 µM) | 2 (≈ 5.43 µM) | 2 (≈ 5.43 µM) | 4 (≈ 10.9 µM) | –
2 | COc1cc(-c2ccc(N3CC(CNC(C)=O)OC3=O)cc2)cccc1=O (stereo not drawn) | 8 (≈ 21.7 µM) | ≤ 16 | 39 | 4 (≈ 10.9 µM) | 16 (≈ 43.4 µM) | 32 (≈ 86.9 µM) | 64 (≈ 174 µM) | > 20
3 | C/N=c1\ccc(-c2ccc(N3CC(CNC(C)=O)OC3=O)cc2)ccc1O (stereo not drawn) | 0.25 (≈ 0.68 µM) | – | – | 0.25 (≈ 0.68 µM) | 1 (≈ 2.72 µM) | 1 (≈ 2.72 µM) | 2 (≈ 5.44 µM) | 4.6
4 | CC(=O)NC[C@H]1CN(c2ccc(C(C)=O)cc2)C(=O)O1 (racemic) [DUP-721] | 2 (≈ 7.24 µM) | ≤ 16 | 45 | 2 (≈ 7.24 µM) | 4 (≈ 14.5 µM) | 8 (≈ 29 µM) | 8 (≈ 29 µM) | 9.4
5 | CN[C@H](CC(C)C)C(=O)N[C@H]1C(=O)N[C@@H](CC(N)=O)C(=O)N[C@H]2C(=O)N[C@H]3C(=O)N[C@H](C(=O)N[C@H](C(=O)O)c4cc(O)cc(O)c4-c4cc3ccc4O)[C@H](O)c3ccc(c(Cl)c3)Oc3cc2cc(c3O[C@@H]2O[C@H](CO)[C@@H](O)[C@H](O)[C@H]2O[C@H]2C[C@](C)(N)[C@H](O)[C@H](C)O2)Oc2ccc(cc2Cl)[C@H]1O [VANCOMYCIN] | – | – | – | 0.5 (≈ 0.345 µM) | – | – | – | –
6 | CC(=O)NCC1CN(c2ccc(-c3ccc(N4CCOCC4)c(=O)cc3)cc2)C(=O)O1 (stereo not drawn) | 0.5 (≈ 1.18 µM) | ≤ 1 | 81 | 0.5 (≈ 1.18 µM) | 2 (≈ 4.72 µM) | 1 (≈ 2.36 µM) | 2 (≈ 4.72 µM) | –
7 | COc1ccc(-c2ccc(N3CC(CNC(C)=O)OC3=O)cc2)ccc1=O (stereo not drawn) | 0.5 (≈ 1.36 µM) | ≤ 1 | 89 | 0.25 (≈ 0.679 µM) | 1 (≈ 2.71 µM) | 1 (≈ 2.71 µM) | 2 (≈ 5.43 µM) | –
8 | C#CCNc1cccc(-c2ccc(N3CC(CNC(C)=O)OC3=O)cc2)cc1=O (stereo not drawn) | 1 (≈ 2.55 µM) | ≤ 1 | 76 | 0.5 (≈ 1.28 µM) | 1 (≈ 2.55 µM) | 1 (≈ 2.55 µM) | 2 (≈ 5.11 µM) | 3.4
9 | C=CCNc1cccc(-c2ccc(N3CC(CNC(C)=O)OC3=O)cc2)cc1=O (stereo not drawn) | 0.5 (≈ 1.27 µM) | – | 80 | 0.5 (≈ 1.27 µM) | 1 (≈ 2.54 µM) | 1 (≈ 2.54 µM) | 2 (≈ 5.08 µM) | 12.5
10 | C=CCOc1ccc(-c2ccc(N3CC(CNC(C)=O)OC3=O)cc2)ccc1=O (stereo not drawn) | 0.5 (≈ 1.27 µM) | – | 74 | 0.25 (≈ 0.634 µM) | 1 (≈ 2.54 µM) | 2 (≈ 5.07 µM) | 4 (≈ 10.1 µM) | 7.9
11 | C=CCNc1ccc(-c2ccc(N3CC(CNC(C)=O)OC3=O)cc2)ccc1=O (stereo not drawn) | 0.5 (≈ 1.27 µM) | – | 81 | 0.5 (≈ 1.27 µM) | 1 (≈ 2.54 µM) | 1 (≈ 2.54 µM) | 2 (≈ 5.08 µM) | 12.7
